Data on 3 molecules can be found in patent EP3753563A1, “ANTI-HERPESVIRUS GUANOSINE ANALOGUE FOR THE INHIBITION OF BASAL AUTOPHAGY” (Helmholtz-Zentrum für Infektionsforschung GmbH, priority 2019, dated 2020).

In assay [1] the test system is 3T3 fibroblasts harbor a RFP-GFP-LC3B tandem reporter construct. As to the kind of experiment: RFP-GFP-LC3B tandem reporter analysis of autophagic flux. The conditions noted are these: for mode of autophagy modulation: mouse 3T3 fibroblasts. The assay is classed as cell-based, mouse. As to the method:
(§1) For the single reporter analyses of figure 1 A549 stably transduced with a retroviral GFP LC3 fusion vector were used, for the tandem reporter analyses of figure 2 NIH mouse fibroblasts stably transduced with a retroviral RFP-GFP-LC3B fusion construct were employed. Cells were seeded on 96-well plates at a density of 3.5 x 10^4 cells per well in 100 µL of their respective growth medium (DMEM for NIH3T3 and F-12K for A549, respectively). The plates were left at room temperature for one hour without moving them to guarantee an even distribution of the cells on the well bottom and then cultured over night at 37 °C and 5% CO2.
(§2) On the next day, compounds were added at the appropriate concentration in either 100 µL of their normal fed medium or 100 µL of Hank's balanced salt solution (HBSS) to induce starvation and then cultured at 37 °C and 5% CO2 for 3 h or 1.5 h respectively. Subsequently, cells were carefully washed once with phosphate buffered saline (PBS), fixed in 4% formaldehyde for 20 min at room temperature and washed again twice with PBS. Nuclear staining was performed using 0.05% Hoechst 33342 solution in PBS for 10 min at room temperature.
After another two times of washing in PBS, cells could be stored in PBS at 4 °C and were ready for measurement with the automatic fluorescence microscope (ImageXpress Micro XLS Widefield High-Content Imaging system). For each well, images at nine different sites were taken automatically (60x objective, magnification 600x). Exposure times were 150 ms for DAPI, 1000 ms for FITC (single reporter LC3) and 150 ms for DAPI, 1000 ms for FITC, 5000 ms for Texas Red (tandem reporter analysis).
NIH/3T3 cells stably expressing RFP-GFP-LC3 were treated to induce or inhibit autophagy (for control) and with the compound in question and taken for image acquisition (described above). Between 120-160 cells were analyzed in each quantification for vesicular, red spot numbers and colocalization of punctate red/green signals using the Gen5 software package (BioTek). Average values are shown.
In this assay, red spot numbers correlate with total LC3 autophagic particles, yellow colocalization parallels the number of autophagosomes/phagophores.

The test system of assay [2] is HSV. As to conditions: read-out: EC 50 concentration for HSV inhibition; cited from earlier work.
Assay [3] deals with A549 GFP-LC3B reporter cells. Description: High-content GFP-LC3B puncta analysis in fed or starved A549 reporter cells. The assay is classed as cell-based, human. The protocol:
as §1, §2
After another two times of washing in PBS, cells could be stored in PBS at 4 °C and were ready for measurement with the automatic fluorescence microscope (ImageXpress Micro XLS Widefield High-Content Imaging system). For each well, images at nine different sites were taken automatically (60x objective, magnification 600x). […]
Duplicate samples were analyzed comprising 500-1000 cells/well, which represents a coverage of at least 2%/well. Analyses were performed using the Transfluor modul of MetaXpress 6 software (Molecular Devices) with the following settings: vesicle width 0.5 µm - 5 µm and necessary intensity above local background 2000 gray levels determined from the FITC or 500 gray levels determined from the Texas Red image. Size of nuclei 5 µm - 30 µm and necessary intensity above local background 2000 gray levels determined from the DAPI image.

Assay [4] concerns wt and mutant ATG4D^G1288A Lagotto Romagnolo dog fibroblasts. As to the kind of experiment: LC3 Western blot of basal and induced autophagy in dog fibroblasts (NVSD model). Format: cell-based. As to the method: Induction (starvation in Earle's Balanced Salt Solution (EBSS)) increases autophagy activity, as detected by formation of the marker LC3-II. Since autophagy consists of several steps and the last one is a degradation step, a block must be set in order to assess the proportion of the synthesis/maturation step more precisely. To this end, Bafilomycin A1 (BafA1) is added to the cells. BafA1 inhibits the fusion of autophagosomes to autolysosomes and then the degradation of the vesicle content. The comparison +/- Baf A1 is used to measure the autophagy flux. Since BafA1 inhibits the degradation of vesicle contents, LC3-II determination in WBs can be used to determine the rate of autophagosome production/maturation (corresponding to the early to middle part of the autophagy process) and the rate of autolysosomal degradation (late phase), i.e. the total degradation capacity.
A reference sample was loaded onto each gel to compare the results of different gels. The reference sample consists of WT cells grown in full medium conditions without any treatment. Graphs show expression levels of LC3-II normalized to the loading control (tubulin) and the reference sample and represent mean + SEM.
Fibroblasts from affected dogs and age-, breed-, and sex-matched controls were cultured in high glucose Dulbecco's Modified Eagle Medium (DMEM 41965-039 Gibco) with 10% fetal bovine serum (FBS 10500056 Gibco) and penicillin-streptomycin (PenStrep15140122 Gibco). During second or third passages, cells were seeded at equal density onto Petri dishes and additionally onto glass cover slips. […] Beta actin was used as the loading control for relative quantification of the blots (anti-beta Actin PA5-16914 Thermo Fischer Scientific). Signals were visualized by enhanced chemiluminescence and further analyzed by densitometry. […]
A general note: In western blotting, separated proteins are transferred to a membrane and probed.

For `CCN(CC)CCCC(C)Nc1ccnc2cc(Cl)ccc12` (stereo not shown) [Chloroquine], in assay [1], the “mode of autophagy modulation” value was “late inhibition”. Besides, in assay [1] (red spot numbers, 2 µM Chloroquine, 120-160 cells), the “total LC3 containing autophagic particle numbers compared to the control” value was “increased”.
In the case of `Nc1nc2c(ncn2COCCO)c(=O)[nH]1` [compound A2, aciclovir], in assay [2], the EC50 was 1.3 µM. The “reduction of the number of autolysosomes” value in assay [1] (calculated by subtraction) was 4 fold. Besides, the “reduction of total autophagic particle numbers” value in assay [1] (compared to the control) was 40%. Moreover, in assay [1], the “mode of autophagy modulation” value is given as “early inhibition of autophagy”. Moreover, the autophagosome/phagophores result in assay [1] (yellow colocalization) is reported as “slight increase”. The “amount of membrane-bound GFP-LC3 compared to the control” value in assay [3] (fed cells (basal autophagy), 3 h, LC3-positive vesicle area per cell) amounted to 60%. Also, in assay [3] (starved cells, 1.5 h), the “inhibition of induced autophagy” value is “does not inhibit induced autophagy”. In addition, in assay [4] (mutant LR cells, 1 µM A2, two hours, with BafA1), the “LC3-II levels of basal autophagy” value is reported as “diminishes LC3-II levels of basal autophagy in mutant LR cells to level observed in wt cells”. Moreover, the “LC3 levels induced by starvation” value in assay [4] (starvation in EBSS, 1 µM A2 (lanes 4 and 8)) is on record as “nearly unaltered”. In assay [4] (treated mutant cells, Western blot lanes 5 DMSO and A2), the “LC3 I” value is reported as “less LC3 I seems to be present”.
In the case of `CC(=O)OCC(CCn1cnc2cnc(N)nc21)COC(C)=O` [Famciclovir], the “reduction of LC3 fluorescence compared to the control” value in assay [3] (fed A549 cells, vesicular GFP 3h after treatment) is 2 -fold.
